In patent publication US20090239951A1, “Crystalline Material” (priority 2006, published 2009):

Legend:
Type in all cases: physicochemical
[1] = Hygroscopicity versus relative humidity
[2] = Heat stability of crystalline form; conditions: solid crystalline form
[3] = Conversion of crystal form on being dissolved or slurried in solvents
[4] = Stability of Form N-5 slurries in ethanol:water mixtures; conditions: ethanol:water mixtures (1:1, 1:1.3 and 1:2) at 5, 25 and 30° C. after 1 h, 48 h and 5 days; confirmed by DSC and FTIR
Experimental: The stability of N-5 slurries in ethanol:water mixtures (1:1, 1:1.3 and 1:2) at 5, 25 and 30° C. was determined after 1 h, 48 h and 5 days. […] DSC and FTIR confirmed this.

[5] = Stability of the crystal form (general statement)

non-hygroscopic up to a relative humidity of [1] [%] | heat stable up to [2] | stability when slurried in the presence of an alcohol ([3]; slurried in the presence of an alcohol, after very long periods conversion into Form N-6 may occur) | stability of slurries (transformation to other form) [4] | becoming hygroscopic at a relative humidity of [1] [%] | form conversion on being dissolved or slurried ([3]; common solvents: alcohols such as methanol, ethanol or isopropanol, nitromethane or nitroethane, alcohol/water mixtures) | stability of crystal form [5] | SMILES
95 | at least 170 °C |  |  |  |  |  | CC(C)c1cc(Oc2c(Br)cc(NC(=O)CC(=O)O)cc2Br)ccc1O [Form N-6, 3-[[3,5-dibromo-4-[4-hydroxy-3-(1-methylethyl)-phenoxy]-phenyl]-amino]-3-oxopropanoic acid]
95 | at least 170 °C | stable for a number of days | did not transform to any other form |  |  |  | CC(C)c1cc(Oc2c(Br)cc(NC(=O)CC(=O)O)cc2Br)ccc1O [Form N-5, 3-[[3,5-dibromo-4-[4-hydroxy-3-(1-methylethyl)-phenoxy]-phenyl]-amino]-3-oxopropanoic acid]
 | around 125 °C |  |  | 50 | converts into Form N-5 and/or Form N-6 | unstable | CC(C)c1cc(Oc2c(Br)cc(NC(=O)CC(=O)O)cc2Br)ccc1O [Form N-1, 3-[[3,5-dibromo-4-[4-hydroxy-3-(1-methylethyl)-phenoxy]-phenyl]-amino]-3-oxopropanoic acid, reference compound]
